According to publication PMC8653649, “Promising Hybrids Derived from S-Allylcysteine and NSAIDs Fragments against Colorectal Cancer: Synthesis, In-vitro Evaluation, Drug-Likeness and In-silico ADME/tox Studies” (Iranian Journal of Pharmaceutical Research : IJPR, 2021):
Read-outs that look alike come from different tables or passages of the source.

What was measured:
[1] = system: non-malignant CHO-K1 cell line; assay: Sulforhodamine B (SRB) growth inhibition / cytotoxicity, CHO-K1; assay type: cell-based; conditions: Cricetulus griseus, mean ± SE, read-out: IC50 (mM) CHO-K1 cells
Description: Biological assays were performed using adenocarcinoma colon cancer (SW480) and non-malignant (CHO-K1) cell lines obtained from The European Collection of Authenticated Cell Cultures (ECACC, England). Cells were cultured in 25-cm^2 flasks containing Dulbecco’s Modified Eagle Medium, supplemented with 10% heat-inactivated (56 °C) horse serum, 1% penicillin/streptomycin and 1% non-essential amino acids (Gibco Invitrogen, Carlsbad, USA). For all experiments, horse serum was reduced to 3%, and the medium was supplemented with […] (ITS-defined medium; Gibco, Invitrogen, Carlsbad, USA) ([33]).
The growth inhibition of the ethanol extract, the Chromone and 5-fluorouracil (5-FU; the standard drug) was evaluated through sulforhodamine B (SRB) assay, a colorimetric test that is based on staining of total cellular protein of adherent cells. Cells were seeded to a ﬁnal density of 20.000 cells/well in 96-well tissue culture plates and incubated at 37 °C in a humidified atmosphere at 5% CO2. All cultures were allowed to grow for 24 h. Afterward, they were treated with 1% of DMSO (vehicle control) or increasing concentrations (10^-5–0,2 mM) of the compounds. After treatment, cells were fixed with trichloroacetic acid (50% v/v; MERCK) for one hour at 4 °C. Cell proteins were determined by staining with SRB (0.4% w/v; Sigma-Aldrich, United States), then they were washed with 1% acetic acid to remove unbound SRB and left for air-drying. Protein-bound SRB was solubilized in 10 mM Tris-base, and the absorbance was measured at 492 nm in a microplate reader (Mindray MR-96A) ([33], [34]). All experiments were performed in quintuplicate. These values were used to calculate the IC50, through dose-response curves for each compound and the selectivity index (SI), by the ratio of IC50 values in non-malignant CHO-K1 cells to IC50 of SW480 cells.
All experiments were performed at least three times. Data are reported as mean ± SE (standard error). Statistical differences between the control group (non-treated) and treated cells were evaluated by one-way ANOVA followed by the Dunnett’s test. Values with p ≤ 0.05 were considered significant. Data were analyzed with GraphPad Prism version 7.04 for Windows (Graph Pad Software, San Diego, California, USA).

[2] = system: SW480 human colon adenocarcinoma cells; assay: Sulforhodamine B (SRB) growth inhibition / cytotoxicity, SW480; assay type: cell-based; conditions: for IC50: Homo sapiens, SRB, mean ± SE; for IC50 / cytotoxic activity (in words): SW480; for cytotoxic activity (in words): 24 h and 48 h after treatment; for SI (selectivity index): ratio IC50 CHO-K1 / IC50 SW480;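 for all read-outs here: cells exposed to graded doses from 10^-5 to 0.2 mM, with 1% DMSO as vehicle control, and cellular protein quantified by SRB staining after trichloroacetic acid fixation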
Description: Cells were cultured in 25-cm^2 flasks containing Dulbecco’s Modified Eagle Medium, supplemented with 10% heat-inactivated (56 °C) horse serum, 1% penicillin/streptomycin and 1% non-essential amino acids (Gibco Invitrogen, Carlsbad, USA). For all experiments, horse serum was reduced to 3%, and the medium was supplemented with 5 mg/mL transferrin, 5 mg/mL selenium and 10 mg/mL insulin (ITS-defined medium; Gibco, Invitrogen, Carlsbad, USA) ([33]).

non-cancer CCD841 cells = system: non-cancer CCD841 cells; parameters: method as in PMID 30429977; conditions: compared with CRC cell lines; cited from earlier work

C=CCSC[C@H](NC(=O)C(C)c1ccc2cc(OC)ccc2c1)C(=O)OC (mixture of isomers) [11a, Methyl S-allyl-N-(2-(6-methoxynaphthalen-2-yl)propanoyl)-L-cysteinate]
IC50 ([1]; 24 h): > 0.2 mM | IC50 ([1]; 48 h): > 0.2 mM | IC50 ([2]; 24 h): > 0.2 mM | IC50 ([2]; 48 h): > 0.2 mM | cytotoxic activity (in words) [2]: displayed activity neither 24 h nor 48 h

C=CCSC[C@H](NC(=O)C(C)c1ccc2cc(OC)ccc2c1)C(=O)OCC (mixture of isomers) [11b, Ethyl S-allyl-N-(2-(6-methoxynaphthalen-2-yl)propanoyl)-L-cysteinate]
IC50 ([1]; 24 h): > 0.2 mM | IC50 ([1]; 48 h): > 0.2 mM | SI (selectivity index) ([2]; 48 h): >1.28 | IC50 ([2]; 24 h): > 0.2 mM | IC50 ([2]; 48 h): 0.156 ± 0.008 mM

C=CCSC[C@H](NC(=O)C(C)c1ccc2cc(OC)ccc2c1)C(=O)OCCC (mixture of isomers) [11c, Propyl S-allyl-N-(2-(6-methoxynaphthalen-2-yl)propanoyl)-L-cysteinate]
IC50 ([1]; 24 h): > 0.2 mM | IC50 ([1]; 48 h): > 0.2 mM | IC50 ([2]; 24 h): > 0.2 mM | IC50 ([2]; 48 h): 0.237 ± 0.012 mM | cytotoxic activity (in words) [2]: displayed activity neither 24 h nor 48 h

C=CCSC[C@H](NC(=O)C(C)c1ccc(CC(C)C)cc1)C(=O)OC (mixture of isomers) [12a, Methyl S-allyl-N-(2-(4-isobutylphenyl)propanoyl)-L-cysteinate]
IC50 ([1]; 24 h): > 0.2 mM | IC50 ([1]; 48 h): 0.201 ± 0.001 mM | melting point: 89 to 91 °C | SI (selectivity index) ([2]; 48 h): 0.82 | IC50 ([2]; 24 h): > 0.2 mM | IC50 ([2]; 48 h): 0.244 ± 0.011 mM | cytotoxic activity (in words) [2]: displayed activity neither 24 h nor 48 h

C=CCSC[C@H](NC(=O)C(C)c1ccc(CC(C)C)cc1)C(=O)OCC (mixture of isomers) [12b, Ethyl S-allyl-N-(2-(4-isobutylphenyl)propanoyl)-L-cysteinate]
IC50 ([1]; 24 h): > 0.2 mM | IC50 ([1]; 48 h): 0.241 ± 0.018 mM | melting point: 65 to 67 °C | SI (selectivity index) ([2]; 48 h): 1.31 | IC50 ([2]; 24 h): > 0.2 mM | IC50 ([2]; 48 h): 0.183 ± 0.005 mM

C=CCSC[C@H](NC(=O)C(C)c1ccc(CC(C)C)cc1)C(=O)OCCC (mixture of isomers) [12c, Propyl S-allyl-N-(2-(4-isobutylphenyl)propanoyl)-L-cysteinate]
IC50 ([1]; 24 h): > 0.2 mM | IC50 ([1]; 48 h): > 0.2 mM | melting point: 58 to 60 °C | SI (selectivity index) ([2]; 24 h): >1.1 | IC50 ([2]; 24 h): 0.225 ± 0.01 mM | IC50 ([2]; 48 h): 0.209 ± 0.005 mM | cytotoxic activity (in words) [2]: displayed activity neither 24 h nor 48 h

O=c1[nH]cc(F)c(=O)[nH]1 [5-Fluorouracil, reference compound]
IC50 ([1]; 24 h): 0.125 ± 0.022 mM | IC50 ([1]; 48 h): 0.046 ± 0.015 mM | SI (selectivity index) ([2]; 48 h): 1.22 | SI (selectivity index) ([2]; 48 h, listed as 5-fluorouracil): higher than 1 | IC50 ([2]; 24 h): 0.096 ± 0.024 mM | IC50 ([2]; 48 h): 0.037 ± 0.013 mM

C=CCSC[C@H](NC(=O)c1ccccc1O)C(=O)OC [9a, Methyl S-allyl-N-(2-hydroxybenzoyl)-L-cysteinate]
IC50 ([1]; 24 h): 0.146 ± 0.016 mM | IC50 ([1]; 48 h): 0.157 ± 0.005 mM | melting point: 112 to 114 °C | SI (selectivity index) ([2]; 24 h): <0.73 | SI (selectivity index) ([2]; 48 h): <0.80 | IC50 ([2]; 24 h): > 0.2 mM | IC50 ([2]; 48 h): > 0.2 mM | cytotoxic activity (in words) [2]: displayed activity neither 24 h nor 48 h

C=CCSC[C@H](NC(=O)c1ccccc1O)C(=O)OCC [9b, Ethyl S-allyl-N-(2-hydroxybenzoyl)-L-cysteinate]
IC50 ([1]; 24 h): > 0.2 mM | IC50 ([1]; 48 h): > 0.2 mM | SI (selectivity index) ([2]; 24 h): >1.25 | IC50 ([2]; 24 h): 0.16 ± 0.013 mM | IC50 ([2]; 48 h): > 0.2 mM

C=CCSC[C@H](NC(=O)c1ccccc1O)C(=O)OCCC [9c, Propyl S-allyl-N-(2-hydroxybenzoyl)-L-cysteinate]
IC50 ([1]; 24 h): > 0.2 mM | IC50 ([1]; 48 h): > 0.2 mM | IC50 ([2]; 24 h): > 0.2 mM | IC50 ([2]; 48 h): > 0.2 mM | cytotoxic activity (in words) [2]: displayed activity neither 24 h nor 48 h

C=CCSC[C@H](NC(=O)Cc1ccccc1Nc1c(Cl)cccc1Cl)C(=O)OC [10a, Methyl S-allyl-N-(2-(2-((2,6-dichlorophenyl)amino)phenyl)acetyl)-L-cysteinate]
IC50 ([1]; 24 h): 0.18 ± 0.012 mM | IC50 ([1]; 48 h): 0.112 ± 0.008 mM | IC50 ([2]; 24 h): 0.192 ± 0.004 mM | IC50 ([2]; 48 h): 0.12 ± 0.004 mM

C=CCSC[C@H](NC(=O)Cc1ccccc1Nc1c(Cl)cccc1Cl)C(=O)OCC [10b, Ethyl S-allyl-N-(2-(2-((2,6-dichlorophenyl)amino)phenyl)acetyl)-L-cysteinate]
IC50 ([1]; 24 h): > 0.2 mM | IC50 ([1]; 48 h): > 0.2 mM | SI (selectivity index) ([2]; 48 h): >1.53 | IC50 ([2]; 24 h): 0.24 ± 0.013 mM | IC50 ([2]; 48 h): 0.131 ± 0.012 mM

C=CCSC[C@H](NC(=O)Cc1ccccc1Nc1c(Cl)cccc1Cl)C(=O)OCCC [10c, Propyl S-allyl-N-(2-(2-((2,6-dichlorophenyl)amino)phenyl)acetyl)-L-cysteinate]
IC50 ([1]; 24 h): 0.223 ± 0.005 mM | IC50 ([1]; 48 h): 0.167 ± 0.1 mM | SI (selectivity index) ([2]; 24 h): 1.09 | SI (selectivity index) ([2]; 48 h): 1.06 | IC50 ([2]; 24 h): 0.204 ± 0.005 mM | IC50 ([2]; 48 h): 0.158 ± 0.002 mM

CC(=O)Oc1ccccc1C(=O)O [Aspirin, reference compound]
IC50 ([1]; 24 h): > 0.2 mM | IC50 ([1]; 48 h): > 0.2 mM | IC50 ([2]; 24 h): > 0.2 mM | IC50 ([2]; 48 h): > 0.2 mM

O=C(O)Cc1ccccc1Nc1c(Cl)cccc1Cl [Diclofenac, reference compound]
IC50 ([1]; 24 h): > 0.2 mM | IC50 ([1]; 48 h): 0.202 ± 0.001 mM | SI (selectivity index) ([2]; 48 h): 0.98 | IC50 ([2]; 24 h): 0.267 ± 0.01 mM | IC50 ([2]; 48 h): 0.206 ± 0.011 mM

CC(C)Cc1ccc(C(C)C(=O)O)cc1 (stereo not drawn) [Ibuprofen, reference compound]
IC50 ([1]; 24 h): > 0.2 mM | IC50 ([1]; 48 h): > 0.2 mM | IC50 ([2]; 24 h): > 0.2 mM | IC50 ([2]; 48 h): > 0.2 mM

COc1ccc2cc([C@H](C)C(=O)O)ccc2c1 [Naproxen, reference compound]
IC50 ([1]; 24 h): > 0.2 mM | IC50 ([1]; 48 h): > 0.2 mM

COc1ccc(/C=C/C(=O)c2ccc(Cl)cc2)c(OC(=O)c2ccccc2OC(C)=O)c1 [compound 4]
fold less inhibitory activity against non-cancer CCD841 cells (non-cancer CCD841 cells): 8 fold
